Measured values reported in the supplement of paper PMC8671470.
Structures can show the parent of a compound that is named as a salt. ± gives the standard deviation of the averaged measurements.

What was measured:
HL-60 [1] = assay: area under dose-response curve (viability, 1 nM-10 uM) (fraction (0-1)); higher = more sensitive; conditions: 72 h
Outline: (§1)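 Area under the curve, where listed, was derived from four-parameter log-logistic fits with drc and PharmacoGx. These fits used CellTiter-Glo viability from HL-60 cells in RPMI 1640 with 10% FBS, normalised to DMSO wells and wells holding 10 μM proteasome inhibitor. The full library was rescreened on 384-well plates in duplicate at five tenfold concentrations, 1–10,000 nM, with DMSO or 100 nM of one of three metabolic inhibitors, for 72 h at 37 °C, 5% CO2.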

HL-60 [2] = assay: cell viability (% survival relative to DMSO control); higher = less cytotoxic; conditions: 72 h
Outline: as §1

[3] = co-treatment: GSK2194069 100 nM
[4] = co-treatment: pictilisib 100 nM
[5] = 0.001 µM, co-treatment: AZD3965 100 nM
[6] = 0.001 µM, co-treatment: DMSO vehicle
[7] = 0.001 µM, co-treatment: GSK2194069 100 nM
[8] = 0.001 µM, co-treatment: pictilisib 100 nM
[9] = 0.01 µM, co-treatment: AZD3965 100 nM
[10] = 0.01 µM, co-treatment: DMSO vehicle
[11] = 0.01 µM, co-treatment: GSK2194069 100 nM
[12] = 0.01 µM, co-treatment: pictilisib 100 nM
[13] = 0.1 µM, co-treatment: AZD3965 100 nM
[14] = 0.1 µM, co-treatment: DMSO vehicle
[15] = 0.1 µM, co-treatment: GSK2194069 100 nM
[16] = 0.1 µM, co-treatment: pictilisib 100 nM
[17] = 1 µM, co-treatment: AZD3965 100 nM
[18] = 1 µM, co-treatment: DMSO vehicle
[19] = 1 µM, co-treatment: GSK2194069 100 nM
[20] = 1 µM, co-treatment: pictilisib 100 nM
[21] = 10 µM, co-treatment: AZD3965 100 nM
[22] = 10 µM, co-treatment: DMSO vehicle
[23] = 10 µM, co-treatment: GSK2194069 100 nM
[24] = 10 µM, co-treatment: pictilisib 100 nM

Row | Structure (SMILES) | area under dose-response curve (HL-60 [1]; co-treatment: AZD3965 100 nM) | area under dose-response curve (HL-60 [1]; co-treatment: DMSO vehicle) | area under dose-response curve (HL-60 [1]; [3]) | area under dose-response curve (HL-60 [1]; [4]) | cell viability (HL-60 [2]; [5]) [%] | cell viability (HL-60 [2]; [6]) [%] | cell viability (HL-60 [2]; [7]) [%] | cell viability (HL-60 [2]; [8]) [%] | cell viability (HL-60 [2]; [9]) [%] | cell viability (HL-60 [2]; [10]) [%] | cell viability (HL-60 [2]; [11]) [%] | cell viability (HL-60 [2]; [12]) [%] | cell viability (HL-60 [2]; [13]) [%] | cell viability (HL-60 [2]; [14]) [%] | cell viability (HL-60 [2]; [15]) [%] | cell viability (HL-60 [2]; [16]) [%] | cell viability (HL-60 [2]; [17]) [%] | cell viability (HL-60 [2]; [18]) [%] | cell viability (HL-60 [2]; [19]) [%] | cell viability (HL-60 [2]; [20]) [%] | cell viability (HL-60 [2]; [21]) [%] | cell viability (HL-60 [2]; [22]) [%] | cell viability (HL-60 [2]; [23]) [%] | cell viability (HL-60 [2]; [24]) [%]
1 | Cc1cc(CS(=O)(=O)c2ccccc2)cc(OCc2ccc(CN3CCC[C@@H]3CO)cc2)c1 [PF 543 hydrochloride] | < 0.0301 | < 0.0301 | < 0.0301 | < 0.0301 | 95.8 ± 1.5 | 99.4 ± 3.8 | 81.7 ± 13 | 79.4 ± 25 | 101 ± 4 | 100 ± 1.8 | 94.56 ± 0.26 | 97.3 ± 2.2 | 100.5 ± 0.44 | 103 ± 2.3 | 96.8 ± 9.3 | 93.9 ± 3.4 | 95.55 ± 0.86 | 99.8 ± 3.3 | 95.1 ± 3.4 | 99.7 ± 5.8 | 96.1 ± 2.8 | 103 ± 3.5 | 92.2 ± 2.2 | 96.7 ± 3.2
2 | CC/C=C\C[C@H]1C(=O)CC[C@@H]1CC(=O)OC [methyl jasmonate] | < 0.0301 | < 0.0301 | < 0.0301 | < 0.0301 | 98.2 ± 3.6 | 101 ± 1.2 | 95.5 ± 2.6 | 96.58 ± 0.3 | 106 ± 7.2 | 99.7 ± 6.1 | 99.5 ± 5 | 104 ± 13 | 100.7 ± 1 | 97.6 ± 3 | 98.1 ± 4.1 | 101 ± 4.1 | 105 ± 1.9 | 102.5 ± 0.84 | 93.3 ± 11 | 109 ± 1.8 | 106 ± 14 | 102 ± 3.3 | 105 ± 16 | 99.6 ± 3.4
